# Results taken from publication PMC9250534, “Synthesis and direct assay of large macrocycle diversities by combinatorial late-stage modification at picomole scale” (Nature Communications, 2022).
# Target: MDM2 (Homo sapiens, UniProt Q00987)
# Assay: MDM2 binding screen of Libraries 3 and 4: displacement of fluorescent probe F-M8 at 750 nM macrocycle
# Conditions: Panel b, Library 3: 63 scaffolds combinatorially acylated with 15 carboxylic acids at 30 picomole scale; displacement of fluorescent peptide probe; macrocycle 750 nM
# Outline: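 Cyclic peptide scaffolds were acylated in DMSO with carboxylic acids (20 equiv.), HBTU and DABCO for 6 h at room temperature. Reactions were quenched overnight in 100 mM Tris-Cl pH 7.4, 0.01% Tween20. The fluorescein conjugate was also competed with nutlin-3a.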
# Sequence of MDM2 (Q00987 whole entry): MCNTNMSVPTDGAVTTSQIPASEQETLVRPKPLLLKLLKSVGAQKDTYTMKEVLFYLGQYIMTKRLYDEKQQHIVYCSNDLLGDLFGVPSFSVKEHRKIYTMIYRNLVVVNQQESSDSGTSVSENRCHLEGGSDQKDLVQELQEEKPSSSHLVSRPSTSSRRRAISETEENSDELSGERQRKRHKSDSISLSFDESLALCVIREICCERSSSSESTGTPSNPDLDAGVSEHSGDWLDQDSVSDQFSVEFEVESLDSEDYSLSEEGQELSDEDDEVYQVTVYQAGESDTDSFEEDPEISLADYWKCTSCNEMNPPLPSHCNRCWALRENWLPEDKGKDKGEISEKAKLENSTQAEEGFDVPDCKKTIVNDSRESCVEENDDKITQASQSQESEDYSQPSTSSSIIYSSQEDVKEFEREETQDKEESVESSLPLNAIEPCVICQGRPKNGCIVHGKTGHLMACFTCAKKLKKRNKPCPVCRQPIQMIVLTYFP
row,Compound,fraction of fluorescent probe displaced
1,CC(Oc1cccc(Cl)c1)C(=O)NCCN1CC(=O)N[C@@H](Cc2cn(C)c3ccccc23)C(=O)NCCSSCCC(=O)N2CCC[C@@H](C2)C1=O (stereo partly shown) [X-Nip-N-Aeg-Me-Trp + Acid 113],0.008
2,CN1C(=O)[C@H](CNC(=O)c2cccc(Oc3ccccc3)c2)NC(=O)C2(CC2)CNC(=O)CCSSCCNC(=O)[C@@H]1Cc1c[nH]c2ccccc12 [X-Amcp-Dap-NMe-Trp + Acid 111],-0.012
3,O=C(/C=C/c1ccc2ccccc2c1)NC[C@H]1NC(=O)[C@H]2CCCN(C2)C(=O)CCSSCCNC(=O)[C@H](Cc2c[nH]c3ccccc23)NC1=O [X-Nip-D-Dap-Trp + Acid 112],-0.012
4,O=C1CN(CCNC(=O)c2ccc(Cl)s2)C(=O)[C@@H]2CN(CCO2)C(=O)CCSSCCNC(=O)[C@H](Cc2c[nH]c3cc(Cl)ccc23)N1 [X-Cop-N-Aeg-Cl-Trp + Acid 14],-0.00533
5,CN1C(=O)CN(CCNC(=O)/C=C/c2ccc3ccccc3c2)C(=O)C2(CC2)CNC(=O)CCSSCCNC(=O)[C@@H]1Cc1c[nH]c2ccccc12 [X-Amcp-N-Aeg-NMe-Trp + Acid 112],-0.019
6,CC(Oc1cccc(Cl)c1)C(=O)NCC1NC(=O)C2CCCN(C2)C(=O)CCSSCCNC(=O)C(Cc2c[nH]c3ccccc23)NC1=O (mixture of isomers) [X-Nip-Dap-Trp + Acid 113],-0.00533
7,O=C1CN(CCNC(=O)c2cccc(Oc3ccccc3)c2)C(=O)[C@H]2CCCN(C2)C(=O)CCSSCCNC(=O)[C@H](Cc2ccc3ccccc3c2)N1 [X-Nip-N-Aeg-2-Nal + Acid 111],0.00133
8,O=C(NC[C@H]1NC(=O)[C@@H]2CN(CCO2)C(=O)CCSSCCNC(=O)[C@H](Cc2ccc3ccccc3c2)NC1=O)c1ccc(Cl)s1 [X-Cop-D-Dap-2-Nal + Acid 14],-0.00533
9,O=C(CCS(=O)(=O)c1ccccc1)NCCN1CC(=O)N[C@@H](Cc2c[nH]c3ccccc23)C(=O)NCCSSCCC(=O)N2CCC[C@@H](C2)C1=O [X-Nip-N-Aeg-Trp + Acid 114],0.035
10,O=C1CCSSCCNC(=O)C(Cc2cccc3ccccc23)NC(=O)CN(CCNC(=O)C2COc3ccccc3O2)C(=O)C2(CC2)CN1 (mixture of isomers) [X-Amcp-N-Aeg-1-NaI + Acid 115],-0.00533
11,O=C(CCS(=O)(=O)c1ccccc1)NCCN1CC(=O)N[C@@H](Cc2c[nH]c3ccccc23)C(=O)NCCSSCCC(=O)NCC2(CC2)C1=O [X-Amcp-N-Aeg-Trp + Acid 114],0.021
12,Cn1cc(C[C@@H]2NC(=O)[C@@H](CNC(=O)/C=C/c3ccc(Cl)cc3)NC(=O)[C@@H]3CN(CCO3)C(=O)CCSSCCNC2=O)c2ccccc21 [X-Cop-D-Dap-Me-Trp + Acid 108],0.021
13,O=C(NCC1NC(=O)C2CN(CCO2)C(=O)CCSSCCNC(=O)C(Cc2c[nH]c3cc(Cl)ccc23)NC1=O)c1ccc(Cl)cc1 (stereo not drawn) [X-Cop-Dap-Cl-Trp + Acid 25],0.088
14,O=C(/C=C/c1ccc(Cl)cc1)NC[C@@H]1NC(=O)[C@H]2CCCN(C2)C(=O)CCSSCCNC(=O)[C@H](Cc2ccc3ccccc3c2)NC1=O [X-Nip-Dap-2-Nal + Acid 108],0.021
15,O=C(/C=C/c1ccc(Cl)cc1)NCCN1CC(=O)N[C@@H](Cc2ccc3ccccc3c2)C(=O)NCCSSCCC(=O)NCC2(CC2)C1=O [X-Amcp-N-Aeg-2-Nal + Acid 108],0.041
16,O=C(/C=C/c1ccc2ccccc2c1)NC[C@H]1NC(=O)[C@@H]2CN(CCO2)C(=O)CCSSCCNC(=O)[C@H](Cc2c[nH]c3cc(Cl)ccc23)NC1=O [X-Cop-D-Dap-Cl-Trp + Acid 112],0.055
17,O=C1CCSSCCNC(=O)[C@H](Cc2c[nH]c3cc(Cl)ccc23)NC(=O)[C@H](CNC(=O)C2COc3ccccc3O2)NC(=O)C2(CC2)CN1 (stereo partly shown) [X-Amcp-Dap-Cl-Trp + Acid 115],-0.012
18,O=C(CCS(=O)(=O)c1ccccc1)NCCN1CC(=O)N[C@H](Cc2c[nH]c3ccccc23)C(=O)NCCSSCCC(=O)NCC2(CC2)C1=O [X-Amcp-N-Aeg-D-Trp + Acid 114],0.055
19,O=C(/C=C/c1ccc(OCc2ccccc2)cc1)NC[C@@H]1NC(=O)[C@H]2CCCN(C2)C(=O)CCSSCCNC(=O)[C@H](Cc2cccc3ccccc23)NC1=O [X-Nip-Dap-1-NaI + Acid 110],0.008

row,Compound,fraction of fluorescent probe displaced
1,O=C1CN(CCNC(=O)c2ccc(Cl)s2)C(=O)C2CN(CCO2)C(=O)CCSSCCNC(=O)C(Cc2ccc3ccccc3c2)N1 (stereo not shown) [X-Cop-N-Aeg-2-Nal + Acid 14],-0.019
2,O=C(NC[C@H]1NC(=O)[C@H]2CCCN(C2)C(=O)CCSSCCNC(=O)[C@H](Cc2cccc3ccccc23)NC1=O)c1ccc(Cl)s1 [X-Nip-D-Dap-1-NaI + Acid 14],-0.019
3,O=C(NC[C@@H]1NC(=O)[C@@H]2CN(CCO2)C(=O)CCSSCCNC(=O)[C@H](Cc2c[nH]c3ccccc23)NC1=O)C1COc2ccccc2O1 (stereo partly drawn) [X-Cop-Dap-Trp + Acid 115],-0.00533
4,O=C(NC[C@H]1NC(=O)[C@H]2CCCN(C2)C(=O)CCSSCCNC(=O)[C@@H](Cc2c[nH]c3ccccc23)NC1=O)c1ccc(Cl)cc1 [X-Nip-D-Dap-D-Trp + Acid 25],0.00133
5,Cn1cc(C[C@@H]2NC(=O)[C@H](CNC(=O)c3ccc4ccccc4c3)NC(=O)[C@H]3CCCN(C3)C(=O)CCSSCCNC2=O)c2ccccc21 [X-Nip-Dap-Me-Trp + Acid 107],0.076
6,O=C(NC[C@@H]1NC(=O)[C@H]2CCCN(C2)C(=O)CCSSCCNC(=O)[C@H](Cc2c[nH]c3ccccc23)NC1=O)c1ccc(Cl)s1 [X-Nip-Dap-Trp + Acid 14],0.208
7,O=C(/C=C/c1ccc(OCc2ccccc2)cc1)NCCN1CC(=O)N[C@@H](Cc2c[nH]c3ccccc23)C(=O)NCCSSCCC(=O)N2CCO[C@@H](C2)C1=O [X-Cop-N-Aeg-Trp + Acid 110],0.015
8,O=C(/C=C/c1ccc(OCc2ccccc2)cc1)NC[C@H]1NC(=O)C2(CC2)CNC(=O)CCSSCCNC(=O)[C@H](Cc2cccc3ccccc23)NC1=O [X-Amcp-D-Dap-1-NaI + Acid 110],0.028
9,Cn1cc(C[C@@H]2NC(=O)[C@H](CNC(=O)/C=C/c3ccc4ccccc4c3)NC(=O)C3(CC3)CNC(=O)CCSSCCNC2=O)c2ccccc21 [X-Amcp-Dap-Me-Trp + Acid 112],0.028
10,O=C(NC[C@@H]1NC(=O)[C@@H]2CN(CCO2)C(=O)CCSSCCNC(=O)[C@H](Cc2ccc3ccccc3c2)NC1=O)c1ccc(Cl)cc1 [X-Cop-Dap-2-Nal + Acid 25],0.041
11,CN1C(=O)[C@@H](CNC(=O)c2ccc3ccccc3c2)NC(=O)[C@H]2CCCN(C2)C(=O)CCSSCCNC(=O)[C@@H]1Cc1c[nH]c2ccccc12 [X-Nip-D-Dap-NMe-Trp + Acid 107],0.031
12,O=C(/C=C/c1ccc(OCc2ccccc2)cc1)NC[C@H]1NC(=O)C2(CC2)CNC(=O)CCSSCCNC(=O)[C@H](Cc2ccc3ccccc3c2)NC1=O [X-Amcp-D-Dap-2-Nal + Acid 110],0.028
13,O=C(/C=C/c1ccc(OCc2ccccc2)cc1)NC[C@H]1NC(=O)[C@@H]2CN(CCO2)C(=O)CCSSCCNC(=O)[C@@H](Cc2c[nH]c3ccccc23)NC1=O [X-Cop-D-Dap-D-Trp + Acid 110],0.015
14,Cn1cc(C[C@@H]2NC(=O)CN(CCNC(=O)/C=C/c3ccc4ccccc4c3)C(=O)[C@@H]3CN(CCO3)C(=O)CCSSCCNC2=O)c2ccccc21 [X-Cop-N-Aeg-Me-Trp + Acid 112],0.028
15,O=C1CCSSCCNC(=O)[C@H](Cc2cccc3ccccc23)NC(=O)CN(CCNC(=O)c2ccc(Cl)cc2)C(=O)C2(CC2)CN1 [X-Amcp-N-Aeg-1-NaI + Acid 25],-0.012
16,CC(Oc1cccc(Cl)c1)C(=O)NCC1NC(=O)C2(CC2)CNC(=O)CCSSCCNC(=O)C(Cc2c[nH]c3cc(Cl)ccc23)NC1=O (mixture of isomers) [X-Amcp-Dap-Cl-Trp + Acid 113],-0.019
17,O=C(NC[C@@H]1NC(=O)[C@H]2CCCN(C2)C(=O)CCSSCCNC(=O)[C@H](Cc2c[nH]c3cc(Cl)ccc23)NC1=O)c1ccc(Cl)s1 [X-Nip-Dap-Cl-Trp + Acid 14],0.181
18,O=C(NC[C@H]1NC(=O)[C@H]2CCCN(C2)C(=O)CCSSCCNC(=O)[C@H](Cc2c[nH]c3ccccc23)NC1=O)c1ccc(Cl)cc1 [X-Nip-D-Dap-Trp + Acid 25],-0.00533

# Same assay, conditions: Panel c, Library 4: best nine scaffolds and 15 additional carboxylic acids; displacement of fluorescent probe
row,Compound,fraction of fluorescent probe displaced
1,CCCOc1ccc(C=CC(=O)NCC2NC(=O)C3CN(CCO3)C(=O)CCSSCCNC(=O)C(Cc3c[nH]c4ccccc34)NC2=O)cc1 (stereo not drawn) [X-Cop-Dap-Trp + Acid 118],0.158
2,CC(C)c1ccc(/C=C/C(=O)NC[C@@H]2NC(=O)[C@H]3CCCN(C3)C(=O)CCSSCCNC(=O)[C@H](Cc3ccc4ccccc4c3)NC2=O)cc1 [X-Nip-Dap-2-Nal + Acid 127],-0.021
3,CCOc1ccc(/C=C/C(=O)NC[C@@H]2NC(=O)[C@H]3CCCN(C3)C(=O)CCSSCCNC(=O)[C@H](Cc3c[nH]c4ccccc34)NC2=O)cc1 [X-Nip-Dap-Trp + Acid 117],0.533
4,CC(=Cc1ccccc1)C(=O)NCC1NC(=O)C2CN(CCO2)C(=O)CCSSCCNC(=O)C(Cc2cn(C)c3ccccc23)NC1=O (stereo not drawn) [X-Cop-Dap-Me-Trp + Acid 123],-0.037
5,O=C(NC[C@@H]1NC(=O)[C@H]2CCCN(C2)C(=O)CCSSCCNC(=O)[C@H](Cc2c[nH]c3cc(Cl)ccc23)NC1=O)c1cnc2ccccc2n1 [X-Nip-Dap-Cl-Trp + Acid 130],0.044
6,O=C(/C=C/c1ccc(F)cc1)NC[C@@H]1NC(=O)[C@H]2CCCN(C2)C(=O)CCSSCCNC(=O)[C@H](Cc2c[nH]c3ccccc23)NC1=O [X-Nip-Dap-Trp + Acid 116],0.443
